According to the supplement of paper PMC10307832:

Tests used:
Experiment in all cases: relative viability (nuclei count vs DMSO), 5 days (fraction); higher = more cells survive
CX-5461 + Trametinib = compound: Cc1cnc(CNC(=O)c2c(=O)c3ccc(N4CCCN(C)CC4)nc3n3c2sc2ccccc23)cn1 [CX-5461] + CC(=O)Nc1cccc(-n2c(=O)n(C3CC3)c(=O)c3c(Nc4ccc(I)cc4F)n(C)c(=O)c(C)c32)c1 [Trametinib] (partner 0.02 µM)
Outline: (§1)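 Lung cancer cell lines were pin-tool dosed in 1536-well plates on the day after seeding, with either a lone drug or a fixed anchor-drug dose plus five library-drug doses (not always all listed) in √10 steps. Nuclei were counted on 4× images after 5 days. Relative viability is the ratio of treated-well to vehicle-well nuclei counts, with each value a median of duplicate plates.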

CX-5461 + Pictilisib = compound: Cc1cnc(CNC(=O)c2c(=O)c3ccc(N4CCCN(C)CC4)nc3n3c2sc2ccccc23)cn1 [CX-5461] + CS(=O)(=O)N1CCN(Cc2cc3nc(-c4cccc5[nH]ncc45)nc(N4CCOCC4)c3s2)CC1 [Pictilisib] (partner 1 µM)
Outline: as §1

CX-5461 + AZD7762 = compound: Cc1cnc(CNC(=O)c2c(=O)c3ccc(N4CCCN(C)CC4)nc3n3c2sc2ccccc23)cn1 [CX-5461] + NC(=O)Nc1cc(-c2cccc(F)c2)sc1C(=O)N[C@H]1CCCNC1 [AZD7762] (partner 0.2 µM)
Outline: as §1

IMD-0354 + Phenformin = compound: O=C(Nc1cc(C(F)(F)F)cc(C(F)(F)F)c1)c1cc(Cl)ccc1O [IMD-0354] + N=C(N)NC(=N)NCCc1ccccc1 [Phenformin] (partner 250 µM)
Outline: as §1

Cell Line | relative viability (CX-5461 + Trametinib; first compound 0.01 µM) | relative viability (CX-5461 + Trametinib; first compound 0.03162 µM) | relative viability (CX-5461 + Trametinib; first compound 0.1 µM) | relative viability (CX-5461 + Trametinib; first compound 0.3162 µM) | relative viability (CX-5461 + Trametinib; first compound 1 µM) | relative viability (CX-5461 + Pictilisib; first compound 0.01 µM) | relative viability (CX-5461 + Pictilisib; first compound 0.03162 µM) | relative viability (CX-5461 + Pictilisib; first compound 0.1 µM) | relative viability (CX-5461 + Pictilisib; first compound 0.3162 µM) | relative viability (CX-5461 + Pictilisib; first compound 1 µM) | relative viability (CX-5461 + AZD7762; first compound 0.01 µM) | relative viability (CX-5461 + AZD7762; first compound 0.03162 µM) | relative viability (CX-5461 + AZD7762; first compound 0.1 µM) | relative viability (CX-5461 + AZD7762; first compound 0.3162 µM) | relative viability (CX-5461 + AZD7762; first compound 1 µM) | relative viability (IMD-0354 + Phenformin; first compound 0.04 µM) | relative viability (IMD-0354 + Phenformin; first compound 0.1265 µM) | relative viability (IMD-0354 + Phenformin; first compound 0.4 µM) | relative viability (IMD-0354 + Phenformin; first compound 1.265 µM) | relative viability (IMD-0354 + Phenformin; first compound 4 µM)
NCI-H1975 | 0.39 | 0.317 | 0.367 | 0.395 | 0.298 | 0.293 | 0.274 | 0.274 | 0.315 | 0.209 | 0.792 | 0.729 | 0.737 | 0.847 | 0.425 | 0.402 | 0.362 | 0.201 | 0.139 | 0.124
CAL-12T | 0.367 | 0.297 | 0.302 | 0.344 | 0.181 | 0.384 | 0.386 | 0.331 | 0.33 | 0.449 | 0.715 | 0.658 | 0.601 | 0.698 | 0.449 | 0.623 | 0.512 | 0.252 | 0.117 | 0.134
NCI-H1623 |  |  |  |  |  |  |  |  |  |  |  |  |  |  |  | 0.565 | 0.621 | 0.459 | 0.364 | 0.385
HCC-44 | 0.921 | 1.25 | 1.11 | 1.14 | 1.05 | 0.584 | 0.877 | 0.492 | 0.644 | 0.43 | 1.02 | 1.06 | 0.952 | 0.963 | 0.967 | 0.241 | 0.32 | 0.193 | 0.139 | 0.105
EKVX | 0.389 | 0.306 | 0.482 |  | 0.265 | 0.47 | 0.447 | 0.429 |  | 0.389 | 0.778 | 0.687 | 0.763 |  | 0.45 | 0.254 | 0.234 | 0.196 | 0.106 | 0.132
NCI-H1651 | 0.824 | 0.791 | 0.87 | 0.79 | 0.778 |  | 0.414 |  | 0.489 | 0.105 | 0.48 | 0.491 | 0.328 | 0.588 | 0.143 | 0.35 | 0.22 | 0.198 | 0.106 | 0.0771
NCI-H2170 | 0.987 | 0.976 | 0.971 | 0.952 | 0.862 | 0.368 | 0.366 | 0.344 | 0.232 | 0.379 | 1.09 | 0.92 | 1.01 | 0.917 | 0.504 | 0.418 | 0.37 | 0.301 | 0.229 | 0.221
NCI-H1703 |  |  |  |  |  | 0.258 | 0.243 | 0.239 | 0.284 | 0.221 |  | 0.11 | 0.104 |  | 0.107 |  |  |  |  | 
Calu-6 |  |  |  |  |  | 1 | 1.04 | 0.817 | 0.845 | 0.409 |  |  |  |  |  |  |  |  |  | 
EBC-1 |  |  |  |  |  | 0.375 | 0.344 | 0.331 | 0.362 | 0.224 |  |  |  |  |  |  |  |  |  | 
A-427 | 0.815 | 0.798 | 0.661 | 0.488 | 0.578 | 0.78 | 0.868 | 0.732 |  | 0.584 | 0.807 | 0.637 | 0.612 | 0.627 | 0.408 | 0.379 | 0.209 | 0.247 | 0.105 | 0.112
NCI-H2347 | 0.273 | 0.279 | 0.292 | 0.272 | 0.223 | 0.769 | 0.697 | 0.49 | 0.562 | 0.665 | 0.825 | 0.716 | 0.688 | 0.767 | 0.605 | 0.396 | 0.381 | 0.272 | 0.149 | 0.218
NCI-H1355 | 0.456 | 0.496 | 0.462 | 0.414 | 0.435 | 0.469 | 0.433 | 0.493 | 0.163 | 0.407 | 0.75 | 0.833 | 0.613 | 0.78 | 0.288 | 0.437 | 0.415 | 0.432 | 0.24 | 0.236
SK-MES-1 | 0.641 | 0.595 | 0.562 | 0.533 | 0.44 | 0.391 | 0.352 | 0.402 | 0.324 | 0.333 |  |  |  |  |  | 0.747 | 0.583 | 0.422 | 0.356 | 0.241
PC-3 [JPC-3] | 0.822 |  | 0.719 | 0.749 | 0.644 | 0.82 | 0.857 | 0.829 | 0.697 | 0.75 | 0.803 |  | 0.822 | 0.865 | 0.759 | 0.508 | 0.449 | 0.459 | 0.264 | 0.291
NCI-H2228 | 0.553 | 0.489 | 0.418 | 0.432 | 0.236 | 0.646 | 0.425 | 0.255 | 0.432 | 0.153 |  |  |  |  |  | 0.372 | 0.224 | 0.233 | 0.084 | 0.165
HOP-62 | 0.404 | 0.37 | 0.388 | 0.419 | 0.363 | 0.592 | 1.16 | 0.727 | 0.167 | 0.623 | 0.643 | 0.854 | 0.424 | 0.194 | 0.356 | 0.842 | 0.482 | 0.363 | 0.12 | 0.165
HARA | 0.545 | 0.772 | 0.573 | 0.661 | 0.644 | 0.634 | 0.559 | 0.37 | 0.497 | 0.267 | 0.318 | 0.234 | 0.361 | 0.202 | 0.294 | 0.422 | 0.47 | 0.154 | 0.0947 | 0.0925
NCI-H838 | 0.555 | 0.555 | 0.539 | 0.328 | 0.482 | 0.457 | 0.473 | 0.5 | 0.474 | 0.325 | 0.971 | 0.941 | 1.01 | 0.698 | 0.696 | 0.685 | 0.448 | 0.358 | 0.234 | 0.207
